# Reference: patent US20170298073A1, “SALTS, CO-CRYSTALS, AMORPHOUS FORMS, AND CRYSTALLINE FORMS OF A CO-ACTIVATOR-ASSOCIATED ARGININE METHYLTRANSFERASE 1 (CARM1) INHIBITOR” (Epizyme, Inc, priority 2014, published 2017)
# Test: Thermodynamic solubility at room temperature
# Type: physicochemical
# Conditions: 25 °C, thermodynamic from solid
# Experimental: In an exemplary experiment, the thermodynamic solubilities of the solid forms described herein were determined at room temperature (RT, 25±3° C.).
smiles,measurement,setting,value
CNC[C@@H](O)COc1ccc(Cl)c(-c2nc(-c3c(C)noc3C)c(C)c(N3CC4(CCN(C(=O)OC)CC4)C3)n2)c1 [Form A],solubility,"organic solvent or mixture, solvent 1,4-Dioxane",> 40 mg/mL
same,solubility,"organic solvent or mixture, solvent 2-Methyl-tetrahydrofuran",> 50 mg/mL
same,solubility,"organic solvent or mixture, solvent Acetic acid",> 44 mg/mL
same,solubility,"organic solvent or mixture, solvent Acetone",> 48 mg/mL
same,solubility,"organic solvent or mixture, solvent Acetonitrile",> 42 mg/mL
same,solubility,"organic solvent or mixture, solvent CHCl3",> 38 mg/mL
same,solubility,"organic solvent or mixture, solvent Dichloromethane",> 36 mg/mL
same,solubility,"organic solvent or mixture, solvent Dimethyl sulfoxide",> 38 mg/mL
same,solubility,"organic solvent or mixture, solvent Dimethylacetamide",> 42 mg/mL
same,solubility,"organic solvent or mixture, solvent EtOAc",> 50 mg/mL
same,solubility,"organic solvent or mixture, solvent EtOH",> 40 mg/mL
same,solubility,"organic solvent or mixture, solvent Isopropanol",> 36 mg/mL
same,solubility,"organic solvent or mixture, solvent Isopropyl acetate",> 36 mg/mL
same,solubility,"organic solvent or mixture, solvent MeOH",> 38 mg/mL
same,solubility,"organic solvent or mixture, solvent Methyl isobutyl ketone",> 34 mg/mL
same,solubility,"organic solvent or mixture, solvent Methyl-tert-butyl ether",< 1.1 mg/mL
same,solubility,"organic solvent or mixture, solvent N-methyl-2-pyrrolidone",> 44 mg/mL
same,solubility,"organic solvent or mixture, solvent THF",> 36 mg/mL
same,solubility,"organic solvent or mixture, solvent Toluene",> 38 mg/mL
same,solubility,"organic solvent or mixture, solvent n-Heptane",< 1.1 mg/mL
same,solubility,"organic solvent or mixture, solvent n-Heptane/THF (1:1 by volume)",14 to 21 mg/mL
same,solubility,"organic solvent or mixture, solvent n-Heptane/THF (1:2 by volume)",> 42 mg/mL
same,solubility,"organic solvent or mixture, solvent n-Heptane/THF (1:3 by volume)",> 40 mg/mL
same,solubility,"organic solvent or mixture, solvent n-Heptane/THF (2:1 by volume)",2.6 to 3 mg/mL
same,solubility,"organic solvent or mixture, solvent n-Heptane/THF (4:1 by volume)",< 1.6 mg/mL
same,solubility,"water, solvent H2O",< 1.1 mg/mL
